Consider eleven compounds from patent US20240368121A1, “ESTROGEN RECEPTOR DEGRADERS, PHARMACEUTICAL COMPOSITIONS THEREOF, AND THEIR THERAPEUTIC APPLICATIONS” (BioTheryX, Inc., priority 2021, published 2024).

Type in all cases: cell-based
The subject of one experiment is MCF7 cells. Kind of experiment: Cell viability assay ([…]-GLO, 6-day treatment). As to conditions: Homo sapiens, MCF7, 144 h; MCF-7 cells, 6 days, CTG; read-out: Inhibition of Cancerous Cells IC50 MCF-7. The essentials: (§1)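 MCF7 (MEM) and T47D (RPMI with insulin), both with 10% FBS, at 1,000 cells/well, treated with a 10-point compound dose series for 6 days, with medium and compound refreshed once. Viability read by CellTiter-Glo luminescence.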

In the next experiment the test system is T47D cells. Kind of experiment: Cell viability assay ([…]-GLO, 6-day treatment). As to conditions: Homo sapiens, 144 h, 6 days, CTG, read-out: Inhibition of Cancerous Cells IC50 T47D. The essentials: as §1
Another experiment concerns the target T1, ERα (Homo sapiens, UniProt P03372).
T1 construct: degrading an ERα in MCF-7 cells via a western blot; endogenous in cells; host or cells: MCF-7
T1 sequence (P03372 1-595): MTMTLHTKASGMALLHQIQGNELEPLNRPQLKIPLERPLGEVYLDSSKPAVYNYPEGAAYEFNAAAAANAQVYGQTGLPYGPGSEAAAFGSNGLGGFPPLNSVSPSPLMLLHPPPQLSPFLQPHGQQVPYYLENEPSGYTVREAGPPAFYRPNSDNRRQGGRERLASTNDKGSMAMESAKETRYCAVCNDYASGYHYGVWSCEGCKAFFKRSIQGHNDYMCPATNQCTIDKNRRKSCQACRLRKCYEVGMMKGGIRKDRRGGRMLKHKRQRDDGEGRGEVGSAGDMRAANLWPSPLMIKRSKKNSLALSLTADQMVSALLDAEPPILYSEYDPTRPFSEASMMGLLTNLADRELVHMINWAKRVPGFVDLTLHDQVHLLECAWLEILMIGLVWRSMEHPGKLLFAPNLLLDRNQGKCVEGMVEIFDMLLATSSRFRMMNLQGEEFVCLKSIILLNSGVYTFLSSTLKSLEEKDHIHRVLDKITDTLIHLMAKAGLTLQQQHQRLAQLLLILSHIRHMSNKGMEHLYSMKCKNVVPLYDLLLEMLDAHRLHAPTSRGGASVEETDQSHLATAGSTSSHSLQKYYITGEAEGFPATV
Kind of experiment: Protein degradation assay: ERα in MCF-7 cells via western blot. Conditions: 6 h; for ERα Protein Degradation 1 nM: 1 nM compound; for ERα Protein Degradation 10 nM: 10 nM compound; for ERα Protein Degradation 100 nM: 100 nM compound. The method in brief:
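MCF-7 cells in MEM/10% FBS with insulin, seeded 300,000/well, treated 6 h at set concentrations (e.g., 1 nM–1 μM). Whole-cell lysates immunoblotted for ERα with GAPDH loading control, chemiluminescent detection; percentage degradation reported in binned categories (≥50%, 25–50%, 10–25%, <10%).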
A general note: Immunoblotting shows a protein as a band on a membrane.

In the case of `O=C1CCC(c2ccc(OCC(=O)N3CCN(CCCCOc4ccc([C@@H]5c6ccc(O)cc6CC[C@@H]5c5ccccc5)cc4)CC3)cc2)C(=O)N1` (stereo partly drawn) [Compound B6, 3-(4-(2-(4-(4-(4-((1R,2S)-6-hydroxy-2-phenyl-1,2,3,4-tetrahydronaphthalen-1-yl)phenoxy)butyl)piperazin-1-yl)-2-oxoethoxy)phenyl)piperidine-2,6-dione], the half-inhibitory concentration (IC50) in the experiment on MCF7 cells turned out to be 0.22 nM. In addition, the IC50 in the experiment with T47D cells stood at 0.18 nM. Besides, at ERα, the “ERα Protein Degradation 1 nM” value is “C (a percentage degradation value of less than 25% and no less than 10%)”; the “ERα Protein Degradation 10 nM” value was “C (a percentage degradation value of less than 25% and no less than 10%)”; the “ERα Protein Degradation 100 nM” value is “C (a percentage degradation value of less than 25% and no less than 10%)”.

As to `O=C1CCN(c2cccc(OCC(=O)N3CCN(CCCCOc4ccc([C@@H]5c6ccc(O)cc6CC[C@@H]5c5ccccc5)cc4)CC3)c2)C(=O)N1` [Compound B9, 1-(3-(2-(4-(4-(4-((1R,2S)-6-hydroxy-2-phenyl-1,2,3,4-tetrahydronaphthalen-1-yl)phenoxy)butyl)piperazin-1-yl)-2-oxoethoxy)phenyl)dihydropyrimidine-2,4(1H,3H)-dione], the IC50 with MCF7 cells came to 1.7 nM. Also, in the experiment on T47D cells, the half-maximal inhibitory concentration (IC50) was 0.49 nM. Also, on ERα, the “ERα Protein Degradation 1 nM” value is on record as “D (a percentage degradation value of less than 10%)”, the “ERα Protein Degradation 10 nM” value is given as “D (a percentage degradation value of less than 10%)” and the “ERα Protein Degradation 100 nM” value is recorded as “D (a percentage degradation value of less than 10%)”.

For the compound `O=C1CCN(c2ccc(OCC(=O)N3CCN(CCCCOc4ccc([C@@H]5c6ccc(O)cc6CC[C@@H]5c5ccccc5)cc4)CC3)cc2)C(=O)N1` [Compound B10, 1-(4-(2-(4-(4-(4-((1R,2S)-6-hydroxy-2-phenyl-1,2,3,4-tetrahydronaphthalen-1-yl)phenoxy)butyl)piperazin-1-yl)-2-oxoethoxy)phenyl)dihydropyrimidine-2,4(1H,3H)-dione], in the experiment on MCF7 cells, the 50% inhibitory concentration (IC50) stood at 1.6 nM. Also, the IC50 in the experiment with T47D cells worked out at 0.76 nM. At ERα, the “ERα Protein Degradation 1 nM” value is reported as “D (a percentage degradation value of less than 10%)”, the “ERα Protein Degradation 10 nM” value is “D (a percentage degradation value of less than 10%)” and the “ERα Protein Degradation 100 nM” value is reported as “D (a percentage degradation value of less than 10%)”.

For `O=C1CCC(Nc2cccc(N3CCN(CC4CCN(c5ccc([C@@H]6c7ccc(O)cc7CC[C@@H]6c6ccccc6)cc5)CC4)CC3)c2)C(=O)N1` (stereo partly drawn) [Compound B13, 3-((3-(4-((1-(4-((1R,2S)-6-hydroxy-2-phenyl-1,2,3,4-tetrahydronaphthalen-1-yl)phenyl)piperidin-4-yl)methyl)piperazin-1-yl)phenyl)amino)piperidine-2,6-dione], in the experiment with MCF7 cells, the IC50 came to 16 nM. Further, the IC50 in the experiment on T47D cells came to 4.6 nM. Besides, on ERα, the “ERα Protein Degradation 1 nM” value is “D (a percentage degradation value of less than 10%)”, the “ERα Protein Degradation 10 nM” value is reported as “D (a percentage degradation value of less than 10%)” and the “ERα Protein Degradation 100 nM” value is “D (a percentage degradation value of less than 10%)”.

Take `O=C1CCC(Nc2cccc(NC3CCN(CC4CCN(c5ccc([C@@H]6c7ccc(O)cc7CC[C@@H]6c6ccccc6)cc5)CC4)CC3)c2)C(=O)N1` (stereo partly drawn) [Compound B14, 3-((3-((1-((1-(4-((1R,2S)-6-hydroxy-2-phenyl-1,2,3,4-tetrahydronaphthalen-1-yl)phenyl)piperidin-4-yl)methyl)piperidin-4-yl)amino)phenyl)amino)piperidine-2,6-dione]: in the experiment on MCF7 cells, the IC50 was 0.73 nM. The IC50 with T47D cells came to 1.2 nM. In addition, at ERα, the “ERα Protein Degradation 1 nM” value is listed as “D (a percentage degradation value of less than 10%)”, the “ERα Protein Degradation 10 nM” value is “D (a percentage degradation value of less than 10%)” and the “ERα Protein Degradation 100 nM” value is “D (a percentage degradation value of less than 10%)”.

Regarding `O=C1CCC(Nc2cccc(OCC(=O)N3CCN(CC4CCN(c5ccc([C@@H]6c7ccc(O)cc7CC[C@@H]6c6ccccc6)cc5)CC4)CC3)c2)C(=O)N1` (stereo partly drawn) [Compound B16, 3-((3-(2-(4-((1-(4-((1R,2S)-6-hydroxy-2-phenyl-1,2,3,4-tetrahydronaphthalen-1-yl)phenyl)piperidin-4-yl)methyl)piperazin-1-yl)-2-oxoethoxy)phenyl)amino)piperidine-2,6-dione], the IC50 with MCF7 cells turned out to be 5 nM. Besides, the 50% inhibitory concentration (IC50) in the experiment on T47D cells was determined as 2.6 nM. Besides, at ERα, the “ERα Protein Degradation 1 nM” value is “C (a percentage degradation value of less than 25% and no less than 10%)”; the “ERα Protein Degradation 10 nM” value is “C (a percentage degradation value of less than 25% and no less than 10%)”; the “ERα Protein Degradation 100 nM” value was “C (a percentage degradation value of less than 25% and no less than 10%)”.

With `O=C1CCC(Nc2cccc(NC(=O)CN3CCN(CC4CCN(c5ccc([C@@H]6c7ccc(O)cc7CC[C@@H]6c6ccccc6)cc5)CC4)CC3)c2)C(=O)N1` (stereo partly drawn) [Compound B19, N-(3-((2,6-dioxopiperidin-3-yl)amino)phenyl)-2-(4-((1-(4-((1R,2S)-6-hydroxy-2-phenyl-1,2,3,4-tetrahydronaphthalen-1-yl)phenyl)piperidin-4-yl)methyl)piperazin-1-yl)-acetamide], the IC50 with MCF7 cells was 2.5 nM. Further, in the experiment with T47D cells, the half-inhibitory concentration (IC50) came to 0.96 nM. Moreover, at ERα, the “ERα Protein Degradation 1 nM” value is “D (a percentage degradation value of less than 10%)”, the “ERα Protein Degradation 10 nM” value is “D (a percentage degradation value of less than 10%)” and the “ERα Protein Degradation 100 nM” value was “D (a percentage degradation value of less than 10%)”.

Regarding `CN(C(=O)CN1CCN(CC2CCN(c3ccc([C@@H]4c5ccc(O)cc5CC[C@@H]4c4ccccc4)cc3)CC2)CC1)c1cccc(NC2CCC(=O)NC2=O)c1` (stereo partly drawn) [Compound B20, N-(3-((2,6-Dioxopiperidin-3-yl)amino)phenyl)-2-(4-((1-(4-((1R,2S)-6-hydroxy-2-phenyl-1,2,3,4-tetrahydronaphthalen-1-yl)phenyl)piperidin-4-yl)methyl)piperazin-1-yl)-N-methylacetamide], the IC50 in the experiment on MCF7 cells came to 5.7 nM. Further, the IC50 with T47D cells is 0.93 nM. At ERα, the “ERα Protein Degradation 1 nM” value was “B (a percentage degradation value of less than 50% and no less than 25%)”; the “ERα Protein Degradation 10 nM” value was “C (a percentage degradation value of less than 25% and no less than 10%)”; the “ERα Protein Degradation 100 nM” value was “D (a percentage degradation value of less than 10%)”.

In the case of `CC1(Cc2ccc(OCCCCN3CCN(C(=O)COc4cccc(C5CCC(=O)NC5=O)c4)CC3)cc2)C(c2ccc(O)cc2)=Nc2ccc(O)cc21` (stereo not shown) [Compound D7, 3-(3-(2-(4-(4-(4-((5-Hydroxy-2-(4-hydroxyphenyl)-3-methyl-3H-indol-3-yl)-methyl)phenoxy)butyl)piperazin-1-yl)-2-oxoethoxy)phenyl)piperidine-2,6-dione], the half-inhibitory concentration (IC50) with MCF7 cells is 101 nM. Besides, the 50% inhibitory concentration (IC50) with T47D cells came out at 44 nM. Moreover, on ERα, the “ERα Protein Degradation 1 nM” value is given as “D (a percentage degradation value of less than 10%)”, the “ERα Protein Degradation 10 nM” value is “D (a percentage degradation value of less than 10%)” and the “ERα Protein Degradation 100 nM” value is “D (a percentage degradation value of less than 10%)”.

For the compound `Cc1c(-c2ccc(O)cc2)n(Cc2ccc(OCCCCN3CCN(C(=O)COc4cccc5c4CN(C4CCC(=O)NC4=O)C5=O)CC3)cc2)c2ccc(O)cc12` (stereo not shown) [Compound E1, 3-(4-(2-(4-(4-(4-((5-hydroxy-2-(4-hydroxyphenyl)-3-methyl-1H-indol-1-yl)-methyl)phenoxy)butyl)piperazin-1-yl)-2-oxoethoxy)-1-oxoisoindolin-2-yl)piperidine-2,6-dione], the concentration for half-maximal inhibition (IC50) with MCF7 cells was 19 nM. In the experiment on T47D cells, the IC50 amounted to 0.84 nM. At ERα, the “ERα Protein Degradation 1 nM” value was “C (a percentage degradation value of less than 25% and no less than 10%)”; the “ERα Protein Degradation 10 nM” value was “B (a percentage degradation value of less than 50% and no less than 25%)”; the “ERα Protein Degradation 100 nM” value is “B (a percentage degradation value of less than 50% and no less than 25%)”.

Turning to `Cc1c(-c2ccc(O)cc2)n(Cc2ccc(OCCCCN3CCN(c4ccc5c(c4)CN(C4CCC(=O)NC4=O)C5=O)CC3)cc2)c2ccc(O)cc12` (stereo not shown) [Compound E2, 3-(5-(4-(4-(4-((5-Hydroxy-2-(4-hydroxyphenyl)-3-methyl-1H-indol-1-yl)methyl)-phenoxy)butyl)piperazin-1-yl)-1-oxoisoindolin-2-yl)piperidine-2,6-dione], the IC50 in the experiment on MCF7 cells is 0.45 nM. Also, the IC50 in the experiment with T47D cells came out at 0.25 nM. Besides, on ERα, the “ERα Protein Degradation 1 nM” value was “D (a percentage degradation value of less than 10%)”, the “ERα Protein Degradation 10 nM” value was “D (a percentage degradation value of less than 10%)” and the “ERα Protein Degradation 100 nM” value was “D (a percentage degradation value of less than 10%)”.

As usually defined, the IC50 is the point on the concentration scale where inhibition reaches its midpoint.
